Here are results for one molecule from paper PMC10137179, “Assessment of Covalently Binding Warhead Compounds in the Validation of the Cytomegalovirus Nuclear Egress Complex as an Antiviral Target” (Cells, 2023).

For assay [1], the target named is T1, pUL97–cyclin H interaction (LgBiT::UL97(231–280)-Flag + SmBiT::CycH-HA) (UniProt P16788+P51946).
T1 construct: open reading frames coding for HCMV pUL97 (amino acids 231–280); expressed in transfected cells; host or cells: 293T
T1 sequence (P16788 231-280 limits assumed): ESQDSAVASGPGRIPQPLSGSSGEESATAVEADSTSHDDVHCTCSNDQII
T1 sequence (P51946 1-323): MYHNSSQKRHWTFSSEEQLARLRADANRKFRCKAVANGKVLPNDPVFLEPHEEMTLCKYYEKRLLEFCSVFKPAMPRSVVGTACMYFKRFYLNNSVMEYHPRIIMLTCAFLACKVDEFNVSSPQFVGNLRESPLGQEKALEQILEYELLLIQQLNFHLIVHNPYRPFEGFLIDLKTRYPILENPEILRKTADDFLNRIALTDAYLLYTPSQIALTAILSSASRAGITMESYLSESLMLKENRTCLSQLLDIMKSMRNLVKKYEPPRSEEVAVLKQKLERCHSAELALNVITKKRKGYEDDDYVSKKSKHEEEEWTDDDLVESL
Briefly: NanoBiT specificity control, pUL97–cyclin H. In kind it is cell-based, HCMV. As to conditions: ibrutinib 3.75–30 µM.

A further assay deals with T2, pUL50-HA + pUL53-Flag (Human cytomegalovirus, UniProt P16791).
T2 construct: expressed in transfected cells; host or cells: 293T
Nature of the assay: Coimmunoprecipitation (CoIP) of pUL50-HA and pUL53-Flag from cotransfected 293T cells. It counts as binding, HCMV. As to conditions: serial concentrations, mostly at 20–40 µM; added 24 h p.t. or after cell lysis. As for the experimental part: For CoIP analysis, 293T cells were seeded in 10 cm dishes with a density of 5 × 10^6 cells and used for transient transfection with expression plasmids. Then, 2–3 days post-transfection (d p.t.), CoIP was performed as described previously, using mAb-HA (H9658, Sigma-Aldrich, St. Louis, MO, USA). In brief, cells were lysed in 500 μL CoIP buffer (50 mM Tris/HCl (pH 8.0), 150 mM NaCl, 5 mM EDTA, 0.5% NP-40, 1 mM PMSF, 2 μg/mL aprotinin, 2 μg/mL leupeptin and 2 μg/mL pepstatin). Subsequently, total lysates were incubated with antibody-coated (2 μL of tag-specific or control antibodies) Dynabeads® Protein A (30 μL per sample; Life Technologies, Carlsbad, CA, USA) for 2 h at 4 °C under rotation. The precipitates were washed five times with 1 mL of CoIP buffer. CoIP samples and lysate controls were taken prior to the addition of the CoIP antibody. SDS-PAGE and standard Western blot analysis of cell lysates was performed using equal protein amounts as described previously. […]
In both cases, total lysates were prepared at 48 h p.t., and the CoIP analysis was performed under continued drug treatment (Figure S3). The protein applied as the basis for IP (using tag-specific mAb-HA) was pUL50-HA, and pUL53-Flag was detected as the CoIP partner. […]

Another assay has as its system HCMV ∆UL50-ΣUL53. Nature of the assay: qPCR-based replication assay, HCMV ∆UL50-ΣUL53 in HFF-UL50 cells. In kind it is cell-based. As for the experimental part:
The viral genome copy number in cell culture supernatants was determined by IE1-specific quantitative real-time PCR (qPCR) as described previously. […] For the qPCR reactions, aliquots of infected-cell supernatants were incubated with proteinase K (Sigma-Aldrich, St. Louis, MO, USA) at 56 °C for 1 h in order to release the viral DNA. After a denaturation step at 95 °C for 5 min, the DNA samples were optionally stored at 4 °C or directly used for qPCR, as performed in a 25 µL reaction mixture containing 5 µL of either the sample or the standard DNA solution. Additional components of the reaction mixture were 12.5 µL 2× TaqMan PCR Mastermix (Applied Biosystems, Waltham, MA, USA), 7.5 pmol of each primer (5′-[…]-3′) and 5′-[…]-3′) and 5 pmol probe directed against the HCMV MIE region exon 4 (5′-[…]-3′), which was labeled with 6-carboxyfluorescein reporter dye and 6-carboxytetramethylrhodamine quencher dye. The DNA standard for quantification was prepared by serial dilutions of an MIE-inserted plasmid. The thermal cycling conditions consisted of two initial steps of 2 min at 50 °C and 10 min at 95 °C followed by 40 amplification cycles (15 s at 95 °C, 1 min 60 °C). Reactions were performed with an ABI Prism 7700 sequence detector (Applied Biosystems, Waltham, MA, USA).
To this end, the conditional expression system of the HCMV ΔUL50-ΣUL53 recombinant was applied. […] The relative differences in viral replication efficiencies, under these four chosen conditions, were normalized by two means, namely, by using the same conditions in the DMSO control panel (±S, ±D) and by evaluating viral replication in percentage values (% DMSO).
HFF-UL50 cells were cultivated in 96-well plates and infected with (A,B) HCMV ∆UL50-ΣUL53, with (C) parental HCMV AD169 (WT), using adjusted genome copy numbers, or remained uninfected (mock). Viral input was adjusted to 1 × 10^5 copies per well. […] Dox was refreshed every second day. At 14 d p.i., supernatants were harvested, and viral genome equivalents were determined using HCMV IE1-specific qPCR. Each condition was examined in biological quadruplicates; mean values ± SDs are shown. […] Statistical analysis was performed using ordinary one-way ANOVA and post hoc Tukey testing; **** p ≤ 0.0001; n.s., not significant.
On the technique in general: In qPCR the cycle at which signal appears reflects the starting amount.

Where two headings read alike, the source gives them in different places. Some results are limits rather than exact numbers.

T2 sequence (P16791 whole entry): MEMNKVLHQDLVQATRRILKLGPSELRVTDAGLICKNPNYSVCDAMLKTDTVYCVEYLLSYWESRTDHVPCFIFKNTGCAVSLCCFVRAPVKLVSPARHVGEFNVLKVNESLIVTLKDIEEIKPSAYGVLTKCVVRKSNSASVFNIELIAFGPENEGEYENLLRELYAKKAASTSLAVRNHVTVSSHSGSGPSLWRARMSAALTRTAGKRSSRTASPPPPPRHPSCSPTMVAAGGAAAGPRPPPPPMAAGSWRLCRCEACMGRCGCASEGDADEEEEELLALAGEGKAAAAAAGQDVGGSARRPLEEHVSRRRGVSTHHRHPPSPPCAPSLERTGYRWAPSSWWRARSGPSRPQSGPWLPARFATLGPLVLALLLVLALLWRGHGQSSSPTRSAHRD

In the case of `C=CC(=O)N1CCC[C@@H](n2nc(-c3ccc(Oc4ccccc4)cc3)c3c(N)ncnc32)C1` [ibrutinib], the “effect on pUL97–cyclin H NanoBiT interaction (in words)” value in assay [1] is “inactive”. Also, the “coimmunoprecipitated pUL53-Flag (in words)” value at pUL50-HA + pUL53-Flag is given as “trend of a reduction in coimmunoprecipitated pUL53-Flag”. Also, the EC50 in the assay on HCMV ∆UL50-ΣUL53 (+S+D (Shield-1 1 µM, Dox 500 ng/mL), 14 d p.i., qPCR, two biological replicates) was 4.8 ± 11.1 µM; in the assay with HCMV ∆UL50-ΣUL53 (Human betaherpesvirus 5, 336 h, +S+D (Shield-1 1 µM, Dox 500 ng/mL), 14 d p.i., qPCR, two biological replicates), 4 ± 3.6 µM; in the assay with HCMV ∆UL50-ΣUL53 (Human betaherpesvirus 5, 336 h, +S-D (no pUL50 induction), 14 d p.i., qPCR) it was over 32 µM; with HCMV ∆UL50-ΣUL53 (Human betaherpesvirus 5, 336 h, -S+D (no pUL53 stabilization), 14 d p.i., qPCR), over 32 µM; in the assay with HCMV ∆UL50-ΣUL53 (Human betaherpesvirus 5, 336 h, -S-D (neither core NEC protein), 14 d p.i., qPCR, two replicates), over 32 µM; in the assay with HCMV ∆UL50-ΣUL53 (Human betaherpesvirus 5, read-out: mean EC50, ∆UL50-ΣUL53, +S+D, mean of replicates), 4.4 µM.

As usually defined, the EC50 is the midpoint of the concentration-response curve.
